SMILES strings stand for the structures. Read-outs that look alike come from different tables or passages of the source.

The record followed here is patent US20250195521A1 (Revolution Medicines, Inc., priority 2020, published 2025).

In experiment [1] the test system is Capan-1 cells (K-Ras G12V). Briefly: CellTiter-Glo cell viability, Capan-1. In kind it is cell-based, human. The conditions noted are these: K-Ras G12V, 5-day treatment, read-out: Capan-1 Cell Viability IC50. On the procedure:
Note—The following protocol describes a procedure for monitoring cell viability of K-Ras mutant cancer cell lines in response to a compound of the invention. Other RAS isoforms may be employed, though the number of cells to be seeded will vary based on cell line used.
Test compounds (132.5 nl) were directly dispensed into the assay plates containing cells. […] On day 5, assay plates and their contents were equilibrated to room temperature for approximately 30 minutes. […] Luminescence was measured using the PerkinElmer Enspire. Data were normalized by the following: (Sample signal/Avg. DMSO)*100. The data were fit using a four-parameter logistic fit.

For experiment [2], the target named is KRAS G12V (Homo sapiens (Human), UniProt P01116+P62937, G12V). Description: Ras-Raf disruption/FRET/MOA assay (BRAF RBD, Cyclophilin A). Format: biochemical. To be noted: read-out: KRAS G12V FRET IC50. Here is the method:
(§1) Compound is present in plate wells as a 10-point 3-fold dilution series starting at a final concentration of 30 μM. After incubation at 25° C. for 3 hours, a mixture of Anti-His Eu—W1024 and anti-GST allophycocyanin is then added to assay sample wells at final concentrations of 10 nM and 50 nM, respectively, and the reaction incubated for an additional 1.5 hours. […] Compounds that facilitate disruption of a Ras: RAF complex are identified as those eliciting a decrease in the TR-FRET ratio relative to DMSO control wells.
(§2) Disruption of B-Raf Ras-Binding Domain (BRAF^RBD) Interaction with K-Ras by Compounds of the Invention (Also Called a FRET Assay or an MOA Assay)
(§3) Note—The following protocol describes a procedure for monitoring disruption of K-Ras G12C (GMP-PNP) binding to BRAF^RBD by a compound of the invention. This protocol may also be executed substituting other Ras proteins or nucleotides.
(§4) The purpose of this biochemical assay was to measure the ability of test compounds to facilitate ternary complex formation between a nucleotide-loaded K-Ras isoform and Cyclophilin A; the resulting ternary complex disrupts binding to a BRAF^RBD construct, inhibiting K-Ras signaling through a RAF effector. Data is reported as IC50 values.
(§5) In assay buffer containing 25 mM HEPES pH 7.3, 0.002% Tween20, 0.1% BSA, 100 mM NaCl and 5 mM MgCl2, tagless Cyclophilin A, His6-K-Ras-GMPPNP, and GST-BRAF^RBD were combined in a 384-well assay plate at final concentrations of 25 μM, 12.5 nM and 50 nM, respectively. Compound was present in plate wells as a 10-point 3-fold dilution series starting at a final concentration of 30 μM. After incubation at 25° C. for 3 hours, a mixture of Anti-His Eu—W1024 and anti-GST allophycocyanin was then added to assay sample wells at final concentrations of 10 nM and 50 nM, respectively, and the reaction incubated for an additional 1.5 hours. […] Compounds that facilitate disruption of a K-Ras: RAF complex were identified as those eliciting a decrease in the TR-FRET ratio relative to DMSO control wells.

The target in experiment [3] is KRAS G12D (Homo sapiens (Human), UniProt P01116+P62937, G12D). The description is as above. The conditions noted are these: read-out: KRAS G12D FRET IC50. Format: biochemical. On the procedure:
as §1, §2, §3, §4, §5

The target of experiment [4] is KRAS G13C (Homo sapiens (Human), UniProt P01116+P62937, G13C). The description is as above. To be noted: read-out: KRAS G13C FRET IC50. Format: biochemical. Here is the method:
as §1, §2, §3, §4, §5

The test system of experiment [5] is K-Ras G12C (NCI-H358 cells). Briefly: Potency assay: pERK in NCI-H358 cells. Format: cell-based, human. The conditions noted are these: Homo sapiens, read-out: pERK EC50 (H358 KRAS G12C). The method, boiled down:
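Cells plated the day before were exposed for 4 h at 37° C, 5% CO2 to a 10-point, 3-fold DMSO dilution series (10 mM top stock), in duplicate. Phospho-ERK was read by AlphaLISA SureFire Ultra or by In-Cell Western with DRAQ5 DNA stain, and IC50 came from a 4-parameter sigmoidal fit.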

Chain of KRAS G13C (P01116 other isoform, or with tags, fused parts or gaps G13C): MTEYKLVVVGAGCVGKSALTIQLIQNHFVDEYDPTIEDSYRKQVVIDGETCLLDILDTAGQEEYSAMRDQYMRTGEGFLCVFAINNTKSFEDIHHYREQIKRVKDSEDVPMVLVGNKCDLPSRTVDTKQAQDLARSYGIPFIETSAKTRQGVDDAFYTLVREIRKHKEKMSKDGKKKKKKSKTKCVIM
Chain of KRAS G13C (P62937 whole entry): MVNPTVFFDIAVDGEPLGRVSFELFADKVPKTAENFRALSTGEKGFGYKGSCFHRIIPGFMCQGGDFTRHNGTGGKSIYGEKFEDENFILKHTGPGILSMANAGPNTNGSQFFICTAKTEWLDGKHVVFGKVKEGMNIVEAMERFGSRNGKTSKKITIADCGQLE
Chain of KRAS G12V (P01116 other isoform, or with tags, fused parts or gaps G12V): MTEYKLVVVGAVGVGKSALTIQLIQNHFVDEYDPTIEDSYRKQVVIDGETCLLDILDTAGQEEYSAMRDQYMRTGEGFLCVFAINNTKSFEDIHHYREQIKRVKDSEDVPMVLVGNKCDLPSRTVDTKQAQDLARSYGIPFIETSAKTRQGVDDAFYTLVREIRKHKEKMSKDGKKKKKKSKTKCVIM
Chain of KRAS G12V (P62937 whole entry): as the sequence (P62937 whole entry) above
Chain of KRAS G12D (P01116 other isoform, or with tags, fused parts or gaps G12D): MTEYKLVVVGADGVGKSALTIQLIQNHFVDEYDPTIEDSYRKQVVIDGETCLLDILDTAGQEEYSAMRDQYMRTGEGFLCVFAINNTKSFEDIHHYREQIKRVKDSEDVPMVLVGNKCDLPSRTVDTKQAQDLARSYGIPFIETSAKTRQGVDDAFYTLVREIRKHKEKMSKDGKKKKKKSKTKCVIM
Chain of KRAS G12D (P62937 whole entry): as the sequence (P62937 whole entry) above

For the compound `CCn1c(-c2cc(N3CCN(C)CC3)cnc2[C@H](C)OC)c2c3cc(ccc31)-c1csc(n1)C[C@H](NC(C)=O)C(=O)N1CCC[C@H](N1)C(=O)OCC(C)(C)C2` [Compound A340], the IC50 in experiment [1] is more than 10000 nM.

For the compound `CCn1c(-c2cccnc2[C@H](C)OC)c2c3cc(ccc31)-c1cc(O)cc(c1)C[C@H](NS(=O)(=O)CC1CCC3(CNC3)C1)C(=O)N1CCC[C@H](N1)C(=O)OCC(C)(C)C2` (stereo partly shown) [Compound A188], the IC50 in experiment [2] was more than 10 µM; in experiment [3], more than 10 µM; in experiment [4] it was 1 to 10 µM.

For the compound `CCn1c(-c2cccnc2[C@H](C)OC)c2c3cc(ccc31)-c1cc(O)cc(c1)C[C@H](NC(=O)[C@H](C(C)C)N(C)C(=O)[C@@H]1C[C@H]1C)C(=O)N1CCC[C@H](N1)C(=O)OCC(C)(C)C2` [Compound A147], the IC50 in experiment [1] (Homo sapiens, CAPAN-1, 120 h) is 100 to 1000 nM.

Consider `CCn1c(-c2cccnc2[C@H](C)OC)c2c3cc(ccc31)-c1cc(O)cc(c1)C[C@H](NC(=O)[C@H](C(C)C)N(C)C(=O)[C@H]1CCN(C(=O)OC)C1)C(=O)N1CCC[C@H](N1)C(=O)OCC(C)(C)C2` [Compound A3], for which, in experiment [5] (NCI-H358 cells, 4 hours), the EC50 was less than 5 µM. Also, in experiment [1] (Homo sapiens, CAPAN-1, 120 h), the IC50 was 10 to 100 nM.

In the case of `CCn1c(-c2cccnc2[C@H](C)OC)c2c3cc(ccc31)-c1csc(n1)C[C@H](NC(=O)[C@H](C(C)C)N(C)C(=O)N1CC3CCN(C)CC31)C(=O)N1CCC[C@H](N1)C(=O)OCC(C)(C)C2` (stereo partly shown) [Compound A539], in experiment [5] (NCI-H358 cells, 4 hours), the EC50 was less than 5 µM. Moreover, in experiment [1] (Homo sapiens, CAPAN-1, 120 h), the IC50 lay within 100 to 1000 nM.

For `CCn1c(-c2cccnc2[C@H](C)OC)c2c3cc(ccc31)-c1cc(O)cc(c1)C[C@H](NS(=O)(=O)N1CCN(C)CC1)C(=O)N1CCC[C@H](N1)C(=O)OCC(C)(C)C2` [Compound A193], in experiment [1] (Homo sapiens, CAPAN-1, 120 h), the IC50 is more than 10000 nM.

Turning to `CCn1c(-c2cccnc2[C@H](C)OC)c2c3cc(ccc31)-c1cc(O)cc(c1)C[C@H](NC(=O)[C@@H]1C[C@H]1C)C(=O)N1CCC[C@H](N1)C(=O)OCC(C)(C)C2` [Compound A183], in experiment [1] (Homo sapiens, CAPAN-1, 120 h), the IC50 was in the range of 1000 to 10000 nM.

With `CCn1c(-c2cccnc2[C@H](C)OC)c2c3cc(ccc31)-c1csc(n1)C[C@H](NC(=O)[C@H](C(C)C)N(C)C(=O)N1CC[C@]13CCCNC3)C(=O)N1CCC[C@H](N1)C(=O)OCC(C)(C)C2` [Compound A434], in experiment [1] (Homo sapiens, CAPAN-1, 120 h), the IC50 lay in the range of 1000 to 10000 nM.

On to `CCn1c(-c2cccnc2[C@H](C)OC)c2c3cc(ccc31)-c1csc(n1)C[C@H](NC(=O)[C@H](C(C)C)N(C)C(=O)N1CCN3CCOC[C@@H]3C1)C(=O)N1CCC[C@H](N1)C(=O)OCC(C)(C)C2` [Compound A547], for which, in experiment [1] (Homo sapiens, CAPAN-1, 120 h), the IC50 was 10 to 100 nM.

Turning to `CCn1c(-c2cnccc2COC)c2c3cc(ccc31)-c1cc(O)cc(c1)C[C@H](NC(=O)[C@H](C(C)C)N(C)C(=O)[C@H]1CCN(S(=O)(=O)N3CC(O)C3)C1)C(=O)N1CCC[C@H](N1)C(=O)OCC(C)(C)C2` [Compound A37, (2S)—N-[(8S,14S)-22-ethyl-4-hydroxy-21-[4-(methoxymethyl)pyridin-3-yl]-18,18-dimethyl-9,15-dioxo-16-oxa-10,22,28-triazapentacyclo [18.5.2.1^2,6.1^10,14.0^23,27]nonacosa-1 (26),2,4,6 (29),20,23 (27),24-heptaen-8-yl]-2-{1-[(3S)-1-[(3-hydroxyazetidin-1-yl)sulfonyl]pyrrolidin-3-yl]-N-methylformamido}-3-methylbutanamide], in experiment [5] (NCI-H358 cells, 4 hours), the EC50 was less than 5 µM.

On to `CCn1c(-c2cc(N3CCN(C)CC3)cnc2[C@H](C)OC)c2c3cc(ccc31)-c1csc(n1)C[C@H](NC(=O)[C@H](C(C)C)N(C)C(=O)N1CC(N(C)C)C1)C(=O)N1CCC[C@H](N1)C(=O)OCC(C)(C)C2` [Compound A477], for which the EC50 in experiment [5] (NCI-H358 cells, 4 hours) was less than 5 µM.

With `CCn1c(-c2cccnc2[C@H](C)OC)c2c3cc(ccc31)-c1csc(n1)C[C@H](NC(=O)[C@H](C(C)C)N(C)C(=O)N1CCCC13CCOCC3)C(=O)N1CCC[C@H](N1)C(=O)OCC(C)(C)C2` [Compound A520], in experiment [5] (NCI-H358 cells, 4 hours), the EC50 was less than 5 µM.

`CCn1c(-c2cccnc2[C@H](C)OC)c2c3cc(ccc31)-c1cc(O)cc(c1)C[C@H](NC(=O)[C@H](C(C)C)N(C)C(=O)[C@H]1CCN(CCO)C1)C(=O)N1CCC[C@H](N1)C(=O)OCC(C)(C)C2` [Compound A111]: in experiment [5] (NCI-H358 cells, 4 hours), the EC50 was less than 5 µM.

As to `CCn1c(-c2cccnc2[C@H](C)OC)c2c3cc(ccc31)-c1csc(n1)C[C@H](NC(=O)[C@H](CC1CC1)N(C)C(=O)N1CC(OC)C1)C(=O)N1CCC[C@H](N1)C(=O)OCC(C)(C)C2` [Compound A578], in experiment [5] (NCI-H358 cells, 4 hours), the EC50 was less than 5 µM.

On to `CCn1c(-c2cc(N3CCN(C)CC3)cnc2[C@H](C)OC)c2c3cc(ccc31)-c1csc(n1)C[C@H](NC(C)=O)C(=O)N1CCC[C@H](N1)C(=O)OCC(C)(C)C2` [Compound A321], for which the EC50 in experiment [5] (NCI-H358 cells, 4 hours) is less than 5 µM. Moreover, the IC50 in experiment [1] is 100 to 1000 nM.

Take `CCn1c(-c2cccnc2[C@H](C)OC)c2c3cc(ccc31)-c1csc(n1)C[C@H](NC(=O)[C@H](C(C)C)N(C)C(=O)N1[C@H](C)CN(C)C[C@H]1C)C(=O)N1CCC[C@H](N1)C(=O)OCC(C)(C)C2` [Compound A610]: the EC50 in experiment [5] (NCI-H358 cells, 4 hours) is less than 5 µM.

With `CCn1c(-c2cccnc2[C@H](C)OC)c2c3cc(ccc31)-c1csc(n1)C[C@H](NC(=O)[C@H](C(C)C)N(C)C(=O)N1CCOC[C@@H]1CN(C)C)C(=O)N1CCC[C@H](N1)C(=O)OCC(C)(C)C2` [Compound A572], the EC50 in experiment [5] (NCI-H358 cells, 4 hours) is less than 5 µM.

Turning to `CCn1c(-c2cnccc2COC)c2c3cc(ccc31)-c1cc(O)cc(c1)C[C@H](NC(=O)[C@H](C(C)C)N(C)C(=O)[C@H]1CCN(C(=O)OC)C1)C(=O)N1CCC[C@H](N1)C(=O)OCC(C)(C)C2` [Compound A11, methyl (3S)-3-{[(1S)-1-{[(8S,14S)-22-ethyl-4-hydroxy-21-[4-(methoxymethyl)pyridin-3-yl]-18,18-dimethyl-9,15-dioxo-16-oxa-10,22,28-triazapentacyclo [18.5.2.1^2,6.1^10,14.0^23,27]nonacosa-1 (26),2,4,6 (29),20,23 (27),24-heptaen-8-yl]carbamoyl}-2-methylpropyl](methyl)carbamoyl}pyrrolidine-1-carboxylate], the EC50 in experiment [5] (NCI-H358, 4 h) is less than 5 µM.

For `CCn1c(-c2cccnc2[C@H](C)OC)c2c3cc(ccc31)-c1csc(n1)C[C@H](NC(=O)[C@H](C(C)C)N(C)C(=O)N1CC([C@H](C)OC)C1)C(=O)N1CCC[C@H](N1)C(=O)OCC(C)(C)C2` [Compound A279], the IC50 in experiment [1] (Homo sapiens, CAPAN-1, 120 h) is 10 to 100 nM.

For `CCn1c(-c2cccnc2[C@H](C)OC)c2c3cc(ccc31)-c1csc(n1)C[C@H](NC(=O)[C@H](C(C)C)N(C)C(=O)N1CC(CO)C1)C(=O)N1CCC[C@H](N1)C(=O)OCC(C)(C)C2` [Compound A356], the EC50 in experiment [5] (NCI-H358 cells, 4 hours) was less than 5 µM.
